What was measured:
[1] = target: T1, mHcCP1c (Haemonchus contortus, UniProt A0A7I4XTV4); experiment: ovine fibrinogen degradation, SDS-PAGE; assay type: biochemical; details: 10 and 50 uM E-64, 15 min pre-incubation, PBS pH 7.4, 37 °C, 16 h; irreversible, covalent
T1 construct: native signal peptide replaced by CD5 signal; C-terminal His tag; secreted from FreeStyle 293-F cells; Ni-NTA purified

[2] = target: T2, mHcCBP1 (Haemonchus contortus, UniProt A0A7I4Z8W6); experiment: ovine fibrinogen degradation, SDS-PAGE; assay type: biochemical; details: 10 and 50 uM E-64, 15 min pre-incubation, PBS pH 7.4, 37 °C, 16 h; irreversible, covalent
T2 construct: native signal peptide replaced by CD5 signal; C-terminal His tag; secreted from FreeStyle 293-F cells; Ni-NTA purified
T2 sequence (A0A7I4Z8W6 entry or part of it): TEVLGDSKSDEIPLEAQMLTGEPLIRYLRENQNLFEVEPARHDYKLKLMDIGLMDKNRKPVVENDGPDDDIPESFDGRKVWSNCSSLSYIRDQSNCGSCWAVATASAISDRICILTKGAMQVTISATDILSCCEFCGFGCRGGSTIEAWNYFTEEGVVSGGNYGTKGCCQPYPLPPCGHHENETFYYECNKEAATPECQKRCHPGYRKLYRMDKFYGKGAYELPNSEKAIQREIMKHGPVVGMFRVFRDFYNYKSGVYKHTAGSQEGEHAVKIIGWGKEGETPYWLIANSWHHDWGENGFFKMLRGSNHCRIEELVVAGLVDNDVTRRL

T1 sequence (A0A7I4XTV4 entry or part of it): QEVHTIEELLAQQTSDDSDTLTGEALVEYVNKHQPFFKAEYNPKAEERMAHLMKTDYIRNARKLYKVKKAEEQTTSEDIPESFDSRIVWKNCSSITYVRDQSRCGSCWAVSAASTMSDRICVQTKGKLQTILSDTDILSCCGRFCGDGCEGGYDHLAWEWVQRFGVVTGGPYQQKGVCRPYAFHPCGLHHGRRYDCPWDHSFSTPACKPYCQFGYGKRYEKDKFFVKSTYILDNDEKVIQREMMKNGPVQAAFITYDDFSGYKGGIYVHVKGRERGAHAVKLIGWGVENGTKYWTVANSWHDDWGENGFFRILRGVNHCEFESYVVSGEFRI

CC(C)C[C@H](NC(=O)[C@H]1O[C@@H]1C(=O)O)C(=O)NCCCCN=C(N)N [E-64, L-trans-epoxysuccinyl-leucyl-amido (4-guanidino) butane]
ovine fibrinogen degradation, SDS-PAGE [1]: ablation of the fibrinogenolytic activities of mHcCBP1, mHcCP1c (Figure 7A) | ovine fibrinogen degradation, SDS-PAGE [2]: ablation of the fibrinogenolytic activities of mHcCBP1, mHcCP1c (Figure 7A)
